Series [1] concerns IgG (hyperimmune antiserum) PCA reaction. The experiment in a line: Oral activity in PCA test, IgG. The conditions noted are these: Rattus norvegicus, 3 mg./kg., read-out: Oral Activity (% of Protection) in the PCA Test, IgG. Type of series: in vivo. The protocol: The antiallergy property of the compounds of this invention is evaluated by the passive cutaneous anaphylaxis (PCA) test (Ovary, J. Immun., 81, 355, 1958). In the PCA test, normal animals are injected intradermally (i.d.) with antibodies contained in serum obtained from actively sensitized animals. The animals are then challenged intravenously with antigen mixed with a dye such as Evans' Blue. The increased capillary permeability caused by the antigen-antibody reaction causes the dye to leak from the site of the antibody injection. The test animals are then asphyxiated and the intensity of the reaction determined by measuring the diameter and intensity of the blue coloration on the inner surface of the animals' skin.
The ability of agents to interfere with PCA reactions is measured in male Charles River Wistar rats, 170-210 g. Reaginic antiserum, rich in IgE antibodies, is prepared according to Petillo et al., Int. Arch. Allergy, 44, 309 (1973). Hyperimmune antiserum rich in IgG antibodies to hen egg albumin is prepared according to Orange et al., J. Exptl. Med., 127, 767 (1968). Forty-eight hours prior to antigen challenge, the reaginic antiserum is injected intradermally (i.d.) into the shaved skin of a normal rat's back; 5 hours before challenge the hyperimmune antisera is similarly injected. At a third site 60 mcg. histamine dihydrochloride and 0.5 mcg. serotonin creatinine sulfate are injected i.d. just prior to antigen challenge as a check for antihistaminic, antiserotonin and unspecific types of blockage; the compounds of the instant invention or saline are then administered i.v. and immediately followed by the challenge of 5 mg. egg albumen and 2.5 mg. Evans' Blue dye in saline. In the case of oral administration Evans' Blue dye and egg albumin are given 5 minutes after administration of the drug. Thirty minutes later the animals are asphyxiated using chloroform and the skin of the back removed and reversed for observation. A score is assigned each injection site equal to the product of the diameter of the site in mm. and a grade of 0.1, 0.5, 1, 2, 3 or 4 proportional to intensity of dye coloration. The scores for a given injection site are summed for each group of five animals and compared to the saline treated controls. The difference is expressed as percent blockage due to the compound employed.
Compounds representative of those of the present invention are tested for antiallergy activity by the above-described procedure and the resulting activities are reported as the degree (%) of protection.

Series [2] deals with plasma histamine rise in rats passively sensitized with IgE-rich antiserum. The experiment in a line: Passive systemic anaphylaxis, plasma histamine rise. In kind it is in vivo, rat.
Series [3] concerns isolated guinea pig ileum (acetylcholine). The series can be described thus: Isolated ileum spasm, acetylcholine. The conditions noted are these: 10^-8 to 10^-4 M.
The subject of series [4] is isolated guinea pig ileum (histamine). The series can be described thus: Isolated ileum spasm, histamine. The note with it: 10^-8 to 10^-4 M.
A further series relates to isolated rat monocytes. The series can be described thus: Synthesis and release of SRC in isolated monocytes stimulated by an ionophore. In kind it is cell-based.
For another series, the system named is ethanol-induced ulcer. The experiment in a line: Ethanol-induced rat ulcer assay. The note with it: oral, 5 mg./kg.; Table III; listed as Formula I: (CH2)4. Type of series: in vivo. As for the experimental part:
Alternatively, the effectiveness of the products of this invention as antiulcer agents is determined in an ethanol-induced rat ulcer assay. In this test, overnight fasted male rats are given drug (5 mg./kg.) or water orally fifteen minutes prior to an orally administered dose of absolute ethanol (1.0 ml.). One hour after the ethanol challenge the animals (8/group) are killed and the stomachs examined for the presence of lesions. All drugs were dissolved in dilute NaOH. After sacrifice the abdomen is opened and a locking hemostat placed at the pylorus. 6 ml. of a 4% solution of formaldehyde was injected into the stomach with a gastric feeding tube and a second locking hemostat was used to seal the esophagus. The stomach was removed, opened along the greater curvature and examined for ulceration.
The scoring system used to quantitate the ethanol-induced lesions is given below.
For each group of animals an ulcer index is calculated as follows:
Ulceration Index=(the sum of the scores of the group)×(the sum of the number of ulcers in the group)×(the fraction of the group having any incidence of ulceration).
The percentage inhibition of ulcers is calculated as follows:
% Inhibition=100×[(ulcer index controls)-(ulcer index drug-treated)].div.(ulcer index controls).

For series [5], the system named is pentagastrin-stimulated acid output. The series can be described thus: Pentagastrin-stimulated acid output in Heidenhain pouch dogs. Type of series: in vivo, dog. The note with it: 5 mg/kg, i.v.
Series [6] concerns urinary volume output and sodium and potassium excretion. The experiment in a line: Diuretic activity. The conditions noted are these: oral. Type of series: in vivo. As for the experimental part:
When given orally, it caused a dose-related increase in urinary volume output at doses in the range 0.3 to 5 mg/kg. […] These findings indicate that the dose-response range for diuretic activity is considerably higher than that for antiulcer effects and just below that for antiallergy effects (1 to 10 mg/kg).

The next series deals with glucose tolerance. The series can be described thus: Glucose tolerance in rats. In kind it is in vivo, rat. The note with it: 10, 30, or 100 mg/kg p.o. with glucose 1 g/kg p.o. From the text:
This effect may be due to a delayed absorption of glucose related to a possible effect on gastric emptying.

Another series deals with bone marrow. The experiment in a line: Bone marrow chromosomal damage, mice. In kind it is in vivo, mouse. The conditions noted are these: single oral 40 mg/kg; 6, 12 or 24 hours. As for the experimental part:
Single oral doses of III, 40 mg/kg, were administered to groups of mice who were sacrificed 6, 12 or 24 hours later. […] From these findings, it is evident that III has no obvious mutagenic potential.

The subject of the next series is point mutations. The experiment in a line: Ames test in vitro. In kind it is cell-based.
A short description of series [7]: Plasma levels after repeated daily dosing. In kind it is in vivo. The conditions noted are these: after the eighth daily dose of III. As for the experimental part:
This is supported by the observations of plasma concentrations of 3 to 7 μg/ml one hour after oral administration of III, 50 to 300 mg/kg.

This note sets out measurements from patent US4535081A, “Antiallergic and antiulcer 1-oxo-1H-thiazolo[3,2-a]pyrimidine-2-carboxamides and intermediates therefor” (Pfizer Inc., priority 1983, dated 1985).

“And” between values parts separate entries of the source, which are not always exact repeats. Identical values can stand only once.

With `O=C(Nc1nnn[nH]1)c1cnc2sc3c(n2c1=O)CCCC3` [Compound III, N-(5-Tetrazolyl)-1-oxo-1H-cyclohexenothiazolo[3,2-a]pyrimidine-2-carboxamide], the inhibition in vivo at 3 mg/kg in series [1] was 45%. Moreover, the “potency relative to Intal, passive systemic anaphylaxis” value in series [2] (i.v., vs Intal) was found to be 13 times. Moreover, in series [2] (rat, in vivo), the “passive systemic anaphylaxis” value is recorded as “prevented”. Also, the “antagonism of spasm of isolated guinea pig ileum” value in series [3] is on record as “does not antagonize spasms”. Also, the “antagonism of spasm of isolated guinea pig ileum” value in series [4] is “does not antagonize spasms”. In addition, the “synthesis and release of SRC” value in the series with isolated rat monocytes is “is not inhibited”. Further, the “% Inhibition in the Ethanol-Induced Rat Ulcer Assay, amides” value in the series with ethanol-induced ulcer was 97% and 81%. Besides, the pentagastrin-stimulated acid output entry in series [5] is “does not affect pentagastrin-stimulated acid output”. Moreover, in series [6], the “dose range of dose-related increase in urinary volume output” value is given as 0.3 to 5 mg/kg. For the same compound, in series [6] (0.3 to 5 mg/kg), the “maximum increase in urinary volume output” value was “twofold increase in volume output”; the “sodium and potassium excretion” value is “an increase in sodium and potassium excretion was observed”; the “urinary concentrations of sodium and potassium ions” value is listed as “unchanged”. Also, the glucose tolerance result with glucose tolerance was “apparent dose-dependent improvement in glucose tolerance”. Further, the “chromosomal damage in bone marrow, single dose” value with bone marrow is listed as “did not reveal any chromosomal damage”. For the same compound, in the series on point mutations, the “point mutations in Ames test” value is reported as “did not induce point mutations”. Besides, in [7], the “levels after the eighth daily dose relative to initial dose” value lay within 2 to 4 times.
